{"source": "patent US12496330B2", "about": "“Methods of improving spinal fusion with abaloparatide” (Radius Health, Inc., priority 2019, dated 2025)", "origin": "cited, not measured here", "test_system": "bone resorption and bone formation markers", "conditions": "male mice; at 4-fold the current dose"}
{"compound": "CC[C@H](C)[C@H](NC(=O)[C@H](CCC(=O)O)NC(=O)[C@H](CO)NC(=O)[C@@H](NC(=O)[C@@H](N)CO)C(C)C)C(=O)N[C@@H](CCC(N)=O)C(=O)N[C@@H](CC(C)C)C(=O)N[C@@H](CCSC)C(=O)N[C@@H](Cc1cnc[nH]1)C(=O)N[C@@H](CC(N)=O)C(=O)N[C@@H](CC(C)C)C(=O)NCC(=O)N[C@@H](CCCCN)C(=O)N[C@@H](Cc1cnc[nH]1)C(=O)N[C@@H](CC(C)C)C(=O)N[C@@H](CC(N)=O)C(=O)N[C@@H](CO)C(=O)N[C@@H](CCSC)C(=O)N[C@@H](CCC(=O)O)C(=O)N[C@@H](CCCN=C(N)N)C(=O)N[C@H](C(=O)N[C@@H](CCC(=O)O)C(=O)N[C@@H](Cc1c[nH]c2ccccc12)C(=O)N[C@@H](CC(C)C)C(=O)N[C@@H](CCCN=C(N)N)C(=O)N[C@@H](CCCCN)C(=O)N[C@@H](CCCCN)C(=O)N[C@@H](CC(C)C)C(=O)N[C@@H](CCC(N)=O)C(=O)N[C@@H](CC(=O)O)C(=O)N[C@H](C(=O)N[C@@H](Cc1cnc[nH]1)C(=O)N[C@@H](CC(N)=O)C(=O)N[C@@H](Cc1ccccc1)C(=O)O)C(C)C)C(C)C", "note": "[teriparatide]", "values": [{"measurement": "Bone resorption markers", "value": "increased"}]}
